Patent US11498923B2 (Merck Sharp & Dohme Corp., priority 2017, dated 2022)

These compounds were tested against T1, human A2a receptor (Homo sapiens, UniProt P29274) (assay: A2a receptor competition binding assay (Scintillation Proximity)). Settings: membranes from HEK293 cells expressing human A2a receptor; 0.5 nM tritiated ligand; Cheng-Prusoff; read-out: A2a Ki.
T1 construct: purchased Perkin-Elmer RBHA2AM400UA; host or cells: HEK293 cells, used as a membrane preparation
Outline: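 HEK293 membranes bearing the human receptor, pretreated with adenosine deaminase, competed against 0.5 nM tritiated pyrazolotriazolopyrimidine antagonist with compound at 3000–0.15 nM final in DPBS plus 10 mM MgCl2. SPA bead readout after 1 h at room temperature; Ki from EC50 via Cheng-Prusoff.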

T1 sequence (P29274 whole entry): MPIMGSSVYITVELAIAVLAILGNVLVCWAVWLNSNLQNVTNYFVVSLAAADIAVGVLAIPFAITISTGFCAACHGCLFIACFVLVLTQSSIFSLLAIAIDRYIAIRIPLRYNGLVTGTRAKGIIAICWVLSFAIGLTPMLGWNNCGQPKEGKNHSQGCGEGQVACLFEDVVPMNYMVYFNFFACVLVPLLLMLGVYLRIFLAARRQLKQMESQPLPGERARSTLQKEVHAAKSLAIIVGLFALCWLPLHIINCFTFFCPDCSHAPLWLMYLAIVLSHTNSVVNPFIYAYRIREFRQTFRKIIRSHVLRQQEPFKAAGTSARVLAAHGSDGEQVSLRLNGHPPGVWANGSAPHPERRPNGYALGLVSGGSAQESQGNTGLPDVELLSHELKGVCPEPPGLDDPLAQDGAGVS

| Ki [nM] | SMILES |
| --- | --- |
| 46 | Nc1nc2c(F)cccc2c2nc(C(=O)N3CCc4ccc(CC(=O)Nc5ccccn5)cc4C3)cn12 [Ex-290, 2-(2-(5-amino-7-fluoroimidazo[1,2-c]quinazoline-2-carbonyl)-1,2,3,4-tetrahydroisoquinolin-7-yl)-N-(pyridin-2-yl)acetamide] |
| 31 | COc1cccc2c1nc(N)n1cc(C(=O)N3CCCC(C(F)(F)F)C3)nc21 (stereo not shown) [Ex-173, (5-amino-7-methoxyimidazo[1,2-c]quinazolin-2-yl)(3-(trifluoromethyl)piperidin-1-yl)methanone] |
| 10 | COc1cccc2c1nc(N)n1cc(C(=O)N3CCCCC3C)nc21 (stereo not shown) [Ex-195, (5-amino-7-methoxyimidazo[1,2-c]quinazolin-2-yl)(2-methylpiperidin-1-yl)methanone] |
| 110 | COc1cccc2c1nc(N)n1cc(C(=O)N3CCC4(CC3)COC4)nc21 [Ex-206, (5-amino-7-methoxyimidazo[1,2-c]quinazolin-2-yl)(2-oxa-7-azaspiro[3.5]nonan-7-yl)methanone] |
| 11 | COc1cccc2c1nc(N)n1cc(C(=O)N3CCC(C(C)C)CC3)nc21 [Ex-196, (5-amino-7-methoxyimidazo[1,2-c]quinazolin-2-yl)(4-isopropylpiperidin-1-yl)methanone] |
| 15 | COc1cccc2c1nc(N)n1cc(C(=O)N3CCCC4(C3)CC(C)(C)OC4=O)nc21 (stereo not shown) [Ex-229, 7-(5-amino-7-methoxyimidazo[1,2-c]quinazoline-2-carbonyl)-3,3-dimethyl-2-oxa-7-azaspiro[4.5]decan-1-one] |
| 0.3 | COc1cccc2c1nc(N)n1cc(Cc3cccc4cccnc34)nc21 [Ex-16, 7-methoxy-2-(quinolin-8-ylmethyl)imidazo[1,2-c]quinazolin-5-amine] |
| 6.2 | Cc1cccc(CNC(=O)c2cn3c(N)nc4c(F)cccc4c3n2)n1 [Ex-295, 5-amino-7-fluoro-N-((6-methylpyridin-2-yl)methyl)imidazo[1,2-c]quinazoline-2-carboxamide] |
| 80.6 | CN(Cc1cccc2cccnc12)C(=O)c1cn2c(N)nc3ccccc3c2n1 [Ex-160, 5-amino-N-methyl-N-(quinolin-8-ylmethyl)imidazo[1,2-c]quinazoline-2-carboxamide] |
| 6.8 | Nc1nc2c(F)cccc2c2nc(Cn3cc(-c4ccc(OC(F)(F)F)cc4)nn3)cn12 [Ex-95, 7-fluoro-2-((4-(4-(trifluoromethoxy)-phenyl)-1H-1,2,3-triazol-1-yl)methyl)-imidazo[1,2-c]-quinazolin-5-amine] |
| 150 | COc1ccc(CN2CCC(Cc3cn4c(N)nc5c(F)cccc5c4n3)CC2)cc1 [Ex-309, 7-fluoro-2-((1-(4-methoxybenzyl)-piperidin-4-yl)-methyl)imidazo-[1,2-c]quinazolin-5-amine] |
| 9.9 | Nc1nc2c(F)cccc2c2nc(Cc3cccc4c3CCN(Cc3ccccn3)C4)cn12 [Ex-58, 7-fluoro-2-((2-(pyridin-2-ylmethyl)-1,2,3,4-tetrahydroisoquinolin-5-yl)methyl)imidazo[1,2-c]quinazolin-5-amine] |
| 520 | CCN1CCN(Cc2cn3c(N)nc4c(F)cccc4c3n2)CC1 [Ex-112, 2-((4-ethylpiperazin-1-yl)methyl)-7-fluoroimidazo[1,2-c]quinazolin-5-amine] |
| 110 | COc1cccc2c1nc(N)n1cc(C(=O)N3CCO[C@H](C)C3)nc21 [Ex-181, (R)-(5-amino-7-methoxyimidazo[1,2-c]quinazolin-2-yl)(2-methylmorpholino) methanone] |
| 9.5 | Nc1nc2c(Br)cccc2c2nc(CNCc3cccnc3)cn12 [Ex-141, 7-bromo-2-(((pyridin-3-ylmethyl)amino)methyl) imidazo[1,2-c]quinazolin-5-amine] |
| 7.4 | COc1cccc2c1nc(N)n1cc(Cc3ccnc(N4CCN(C(C)=O)CC4)c3)nc21 [Ex-46, 1-(4-(4-((5-amino-7-methoxyimidazo[1,2-c]quinazolin-2-yl)methyl)pyridin-2-yl)piperazin-1-yl)ethan-1-one] |

| Ki [nM] | SMILES |
| --- | --- |
| 1 | COc1cccc2c1nc(N)n1cc(Cc3ccc(F)cc3F)nc21 [Ex-18, 2-(2,4-difluorobenzyl)-7-methoxyimidazo[1,2-c]quinazolin-5-amine] |
| 2.3 | Nc1nc2c(F)cccc2c2nc(C(=O)NCc3cccc(CN4CCOCC4)c3)cn12 [Ex-258, 5-amino-7-fluoro-N-(3-(morpholinomethyl)benzyl) imidazo[1,2-c]quinazoline-2-carboxamide] |
| 0.9 | Nc1nc2c(F)cccc2c2nc(Cc3ccccc3)cn12 [Ex-06, 2-benzyl-7-fluoroimidazo[1,2-c]quinazolin-5-amine] |
| 3.8 | Nc1nc2c(F)cccc2c2nc(Cc3ccc(C(=O)Nc4ccccn4)cc3)cn12 [Ex-84, 4-((5-amino-7-fluoroimidazo[1,2-c]quinazolin-2-yl)methyl)-N-(pyridin-2-yl)benzamide] |
| 27 | Cn1cc(-c2ccc(F)c3nc(N)n4cc(Cc5ccccc5)nc4c23)ccc1=O [Ex-61, 5-(5-amino-2-benzyl-7-fluoroimidazo[1,2-c]quinazolin-10-yl)-1-methylpyridin-2(1H)-one] |
| 47 | Nc1nc2c(F)cccc2c2nc(CC3CCN(C(=O)c4ncccn4)CC3)cn12 [Ex-326, (4-((5-amino-7-fluoroimidazo[1,2-c]quinazolin-2-yl)-methyl)piperidin-1-yl)(pyrimidin-2-yl)-methanone] |
| 120 | COc1ccc(-c2ccc(Cc3cn4c(N)nc5c(F)cccc5c4n3)cc2)cc1 [Ex-78, 7-fluoro-2-((4′-methoxy-[1,1′-biphenyl]-4-yl)melhyl)imidazo[1,2-c]quinazolin-5-amine] |
| 4 | COc1cccc2c1nc(N)n1cc(CNCc3ccccc3)nc21 [Ex-143, 2-((benzylamino)-methyl)-7-methoxy-imidazo[1,2-c]-quinazolin-5-amine] |
| 6 | Nc1nc2c(F)cccc2c2nc(Cc3ccccc3CN3CCOCC3)cn12 [Ex-35, 7-fluoro-2-(2-(morpholinomethyl)benzyl)imidazo[1,2-c]quinazolin-5-amine] |
| 15 | CC(C)(C)OC(=O)N1CCC2(CCCN(C(=O)c3cn4c(N)nc5c(F)cccc5c4n3)C2)C1 (stereo not shown) [Ex-260, tert-butyl 7-(5-amino-7-fluoroimidazo[1,2-c]quinazoline-2-carbonyl)-2,7-diazaspiro[4.5]decane-2-carboxylate] |
| 11 | Nc1nc2c(F)cccc2c2nc(Cc3cccc4c3CCNC4)cn12 [Ex-52, 7-fluoro-2-((1,2,3,4-tetrahydroisoquinolin-5-yl)methyl)imidazo-[1,2-c]quinazolin-5-amine] |
| 48 | Cc1noc(C)c1-c1cccc2c1nc(N)n1cc(Cc3ccc(F)cc3)nc21 [Ex-154, 7-(3,5-dimethylisoxazol-4-yl)-2-(4-fluorobenzyl)imidazo[1,2-c]quinazolin-5-amine] |
| 3.9 | Nc1nc2c(F)cccc2c2nc(CN3CCOc4cccnc43)cn12 [Ex-118, 2-((2,3-dihydro-4H-pyrido[3,2-b][1,4]oxazin-4-yl)methyl)-7-fluoroimidazo[1,2-c]quinazolin-5-amine] |
| 7.9 | COc1cccc2c1nc(N)n1cc(CN3CCc4ccc(-c5cncnc5)cc4C3)nc21 [Ex-134] |
| 190 | COc1cccc2c1nc(N)n1cc(C(=O)N3CCOC(C)(C)C3)nc21 [Ex-187, (5-amino-7-methoxyimidazo[1,2-c]quinazolin-2-yl)(2,2-dimethylmorpholino) methanone] |
